Reference: patent US6518480B1 (priority 1996, dated 2003)

Assays:
[1] = test system: OR2; assay type: cell-based, human
[2] = target: OR2 (Homo sapiens, UniProt P41145, G198V/DELINS201-226[…]/E297Q, form not given); assay type: cell-based; conditions: read-out: EC50, signaling by OR2; signaling by OR2
[3] = test system: OR2; assay type: binding, human
[4] = target: T1, Wild-type KOR (Homo sapiens, UniProt P41145); assay: biochemical; assay type: binding
T1 construct: expressed in transfected cells; host or cells: COS-7 and CHO-KI (for OR1 and OR2)
T1 sequence (P41145 whole entry): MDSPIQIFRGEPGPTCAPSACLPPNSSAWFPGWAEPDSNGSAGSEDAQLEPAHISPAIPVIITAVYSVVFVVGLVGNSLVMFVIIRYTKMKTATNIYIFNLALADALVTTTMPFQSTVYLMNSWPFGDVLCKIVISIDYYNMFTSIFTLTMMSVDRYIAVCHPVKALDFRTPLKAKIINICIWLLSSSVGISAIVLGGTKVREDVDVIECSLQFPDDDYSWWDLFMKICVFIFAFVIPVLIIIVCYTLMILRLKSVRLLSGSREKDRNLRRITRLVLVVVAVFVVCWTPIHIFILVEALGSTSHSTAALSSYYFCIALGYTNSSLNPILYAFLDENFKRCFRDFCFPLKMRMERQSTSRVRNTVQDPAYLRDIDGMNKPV

[5] = target: OR1 (Homo sapiens, UniProt P41145, G198V/DELINS201-226[…], form not given); assay: Signaling (activation of G protein-mediated signals, adenylyl cyclase inhibition) by OR1; assay type: cell-based
Sequence of OR1 (Homo sapiens, UniProt P41145, G198V/DELINS201-226[…], form not given) (P41145 with tags, fused parts or gaps DELINS198-226[withheld], form open): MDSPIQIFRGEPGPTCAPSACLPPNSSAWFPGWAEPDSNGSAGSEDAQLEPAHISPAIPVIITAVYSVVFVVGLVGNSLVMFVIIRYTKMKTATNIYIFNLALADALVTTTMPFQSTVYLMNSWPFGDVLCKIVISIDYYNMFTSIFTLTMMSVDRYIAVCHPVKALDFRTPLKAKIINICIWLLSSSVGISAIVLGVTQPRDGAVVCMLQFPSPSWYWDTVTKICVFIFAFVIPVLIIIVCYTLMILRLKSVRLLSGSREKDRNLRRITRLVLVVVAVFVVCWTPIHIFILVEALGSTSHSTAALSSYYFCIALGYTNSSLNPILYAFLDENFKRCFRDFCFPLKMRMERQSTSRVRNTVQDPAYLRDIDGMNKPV

[6] = test system: OR1; assay: as above; assay type: cell-based, human; conditions: relative to signal detected with wild-type KOR
[7] = test system: OR1; assay type: binding, human
[8] = target: T1, Wild-type KOR; assay: Signaling (activation of G protein-mediated signals, adenylyl cyclase inhibition) by wild-type KOR; assay type: cell-based
[9] = relative to signal detected with wild-type KOR

Sequence of OR2 (Homo sapiens, UniProt P41145, G198V/DELINS201-226[…]/E297Q, form not given) (P41145 with tags, fused parts or gaps DELINS198-226[withheld]/E297Q, form open): as the sequence (P41145 with tags, fused parts or gaps DELINS198-226[withheld], form open) above, with E294Q counted along it

CCC12CCN(CC3(O)CC3)C(Cc3ccc(O)cc31)C2(C)C (stereo not drawn) [Bremazocine, bremazocine]
Fold decrease in signaling, OR2 [1, 9]: 5.17 fold | Biochemical Signal, decrease (summary), OR2 ([1]; summary table, ↓ = decrease versus wild-type KOR): ↓5x | Amount of ligand required to activate the biochemical signal at OR2 compared to wild-type KOR ([1]; times more ligand than for wild type KOR): about 5 times | EC50 [2]: 340 pM | Change in binding affinity of OR2 relative to native human KOR [3]: no change | Fold decrease in binding, OR2 [3]: 1.2 fold | Fold decrease in binding, Wild-type KOR [4]: 1 fold | Ki [4]: 38 pM | Inhibition of adenylyl cyclase by OR1 in response to ligand ([5]; dynorphin only at high concentrations): inhibits adenylyl cyclase | EC50 ([5]; read-out: EC50, signaling by OR1, signaling by OR1): 68 pM | Fold decrease in signaling, OR1 [6]: 1 fold | Change in binding affinity of OR1 relative to native human KOR [7]: no significant change | Fold decrease in binding, OR1 [7]: 1.7 fold | EC50 [8]: 67 pM | Fold decrease in signaling, Wild-type KOR [8, 9]: 1 fold
